From ChEMBL document CHEMBL1201862, “PubChem BioAssay data set” (2004)
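Assay format: 96-well plates, 48-hour exposure. The concentration for 50% growth inhibition is given as GI50.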 The source made the active and inactive calls. Cut-off read from the data, not from the text of the source: active = GI50 up to about 1.1 µM and inactive = higher.

How the values were obtained:
Assay in all cases: NCI anticancer screen, dose series, 48 h
CCRF-CEM = tested on: CCRF-CEM
T47D = tested on: T47D
A498 = tested on: A498
COLO 205 = tested on: COLO 205
IGROV-1 = tested on: IGROV-1
K562 = tested on: K562
SK-MEL-28 = tested on: SK-MEL-28
RPMI-8226 = tested on: RPMI-8226
MCF7 = tested on: MCF7
LOX IMVI = tested on: LOX IMVI
SF-539 = tested on: SF-539
BT-549 = tested on: BT-549
MDA-MB-435 = tested on: MDA-MB-435
ACHN = tested on: ACHN
SN12C = tested on: SN12C
CAKI-1 = tested on: CAKI-1
SW-620 = tested on: SW-620
UACC-257 = tested on: UACC-257
SK-MEL-5 = tested on: SK-MEL-5
OVCAR-3 = tested on: OVCAR-3
MDA-N = tested on: MDA-N
KM12 = tested on: KM12
TK-10 = tested on: TK-10
HL-60 = tested on: HL-60
OVCAR-8 = tested on: OVCAR-8
HOP-62 = tested on: HOP-62
HT-29 = tested on: HT-29
HCT-15 = tested on: HCT-15
OVCAR-4 = tested on: OVCAR-4
NCI-H460 = tested on: NCI-H460
SF-268 = tested on: SF-268
A549 = tested on: A549
HCC 2998 = tested on: HCC 2998
OVCAR-5 = tested on: OVCAR-5
PC-3 = tested on: PC-3
Hs-578T = tested on: Hs-578T
SK-OV-3 = tested on: SK-OV-3
786-0 = tested on: 786-0
SNB-75 = tested on: SNB-75
SNB-19 = tested on: SNB-19
DU-145 = tested on: DU-145
Malme-3M = tested on: Malme-3M
NCI-H522 = tested on: NCI-H522
NCI-H226 = tested on: NCI-H226
EKVX = tested on: EKVX
MDA-MB-231 = tested on: MDA-MB-231
UO-31 = tested on: UO-31
UACC-62 = tested on: UACC-62
SR = tested on: SR
U-251 = tested on: U-251
M14 = tested on: M14
SK-MEL-2 = tested on: SK-MEL-2
MOLT-4 = tested on: MOLT-4
RXF 393 = tested on: RXF 393
HOP-92 = tested on: HOP-92
HCT-116 = tested on: HCT-116
NCI/ADR-RES = tested on: NCI/ADR-RES
SF-295 = tested on: SF-295
NCI-H23 = tested on: NCI-H23

COc1ccc(N2C(=O)C3c4[nH]c5ccc(OCc6ccccc6)cc5c4C4CCC(c5ccccc5)CC4C3C2=O)cc1 (stereo not drawn)
GI50 (CCRF-CEM): 4.2 µM (inactive) | GI50 (T47D): 7.73 µM (inactive) | GI50 (A498): 23.9 µM (inactive) | GI50 (COLO 205): 10.8 µM (inactive) | GI50 (IGROV-1): 8.85 µM (inactive) | GI50 (K562): 4.37 µM (inactive) | GI50 (SK-MEL-28): 1.94 µM (inactive) | GI50 (RPMI-8226): 6.61 µM (inactive) | GI50 (MCF7): 29.6 µM (inactive) | GI50 (LOX IMVI): 15.2 µM (inactive) | GI50 (SF-539): 3.01 µM (inactive) | GI50 (BT-549): 4.55 µM (inactive) | GI50 (MDA-MB-435): 3.22 µM (inactive) | GI50 (ACHN): 7.21 µM (inactive) | GI50 (SN12C): 33.7 µM (inactive) | GI50 (CAKI-1): 8.18 µM (inactive) | GI50 (SW-620): 2.02 µM (inactive) | GI50 (UACC-257): 42.9 µM (inactive) | GI50 (SK-MEL-5): 8.22 µM (inactive) | GI50 (OVCAR-3): 57.9 µM (inactive) | GI50 (MDA-N): 22.6 µM (inactive) | GI50 (KM12): 27 µM (inactive) | GI50 (TK-10): 7.55 µM (inactive) | GI50 (HL-60): 0.34 µM (active) | GI50 (OVCAR-8): 8.91 µM (inactive) | GI50 (HOP-62): 3.37 µM (inactive) | GI50 (HT-29): 11 µM (inactive) | GI50 (HCT-15): 11.6 µM | GI50 (OVCAR-4): 1.19 µM (inactive) | GI50 (NCI-H460): 4.74 µM (inactive) | GI50 (SF-268): 6.85 µM (inactive) | GI50 (A549): 9.64 µM (inactive) | GI50 (HCC 2998): 4.84 µM (inactive) | GI50 (OVCAR-5): 30.5 µM (inactive) | GI50 (PC-3): 8.53 µM (inactive) | GI50 (Hs-578T): 5.42 µM (inactive) | GI50 (SK-OV-3): 4.98 µM (inactive) | GI50 (786-0): 2.67 µM (inactive) | GI50 (SNB-75): 7.82 µM (inactive) | GI50 (SNB-19): 11 µM (inactive) | GI50 (DU-145): 8.07 µM (inactive) | GI50 (Malme-3M): 2.35 µM (inactive) | GI50 (NCI-H522): 7.43 µM (inactive) | GI50 (NCI-H226): 19.2 µM (inactive) | GI50 (EKVX): 19.6 µM (inactive) | GI50 (MDA-MB-231): 6.35 µM (inactive) | GI50 (UO-31): 53.6 µM (inactive) | GI50 (UACC-62): 6.95 µM (inactive) | GI50 (SR): 2.37 µM (inactive) | GI50 (U-251): 2.54 µM (inactive) | GI50 (M14): 6.78 µM (inactive) | GI50 (SK-MEL-2): 23.1 µM (inactive) | GI50 (MOLT-4): 14.7 µM (inactive) | GI50 (RXF 393): 6.49 µM (inactive) | GI50 (HOP-92): 3.08 µM (inactive) | GI50 (HCT-116): 11.1 µM (inactive) | GI50 (NCI/ADR-RES): 18.8 µM (inactive) | GI50 (SF-295): 11 µM (inactive) | GI50 (NCI-H23): 9.62 µM (inactive)

CNC(=O)OCc1c(COC(=O)NC)c(-c2ccc(-c3ccccc3)cc2)n(C)c1C
GI50 (CCRF-CEM): 0.502 µM (active) | GI50 (T47D): 2.39 µM (inactive) | GI50 (A498): 0.504 µM (active) | GI50 (COLO 205): 4.32 µM (inactive) | GI50 (IGROV-1): 2.24 µM (inactive) | GI50 (K562): 0.822 µM (active) | GI50 (SK-MEL-28): 10.9 µM (inactive) | GI50 (RPMI-8226): 0.467 µM (active) | GI50 (MCF7): 2.75 µM (inactive) | GI50 (LOX IMVI): 2.19 µM (inactive) | GI50 (SF-539): 1.86 µM (inactive) | GI50 (BT-549): 1.21 µM (inactive) | GI50 (MDA-MB-435): 5.41 µM (inactive) | GI50 (ACHN): 0.493 µM (active) | GI50 (SN12C): 0.726 µM (active) | GI50 (CAKI-1): 0.443 µM (active) | GI50 (SW-620): 5.48 µM (inactive) | GI50 (UACC-257): 6.95 µM (inactive) | GI50 (SK-MEL-5): 3.1 µM (inactive) | GI50 (OVCAR-3): 2.54 µM (inactive) | GI50 (MDA-N): 4.34 µM (inactive) | GI50 (KM12): 8.04 µM (inactive) | GI50 (TK-10): 3.15 µM (inactive) | GI50 (HL-60): 0.351 µM (active) | GI50 (OVCAR-8): 2.26 µM (inactive) | GI50 (HOP-62): 2.79 µM (inactive) | GI50 (HT-29): 2.7 µM (inactive) | GI50 (HCT-15): 2.17 µM | GI50 (OVCAR-4): 3.08 µM (inactive) | GI50 (NCI-H460): 0.401 µM (active) | GI50 (SF-268): 0.755 µM (active) | GI50 (A549): 1.9 µM (inactive) | GI50 (HCC 2998): 2.82 µM (inactive) | GI50 (OVCAR-5): 2.35 µM (inactive) | GI50 (PC-3): 2.52 µM (inactive) | GI50 (Hs-578T): 11 µM (inactive) | GI50 (SK-OV-3): 2.88 µM (inactive) | GI50 (786-0): 1.56 µM (inactive) | GI50 (SNB-75): 2.95 µM (inactive) | GI50 (SNB-19): 3.33 µM (inactive) | GI50 (DU-145): 2.18 µM (inactive) | GI50 (Malme-3M): 1.15 µM (inactive) | GI50 (NCI-H522): 1.58 µM (inactive) | GI50 (NCI-H226): 7.98 µM (inactive) | GI50 (EKVX): 2.44 µM (inactive) | GI50 (MDA-MB-231): 2.69 µM (inactive) | GI50 (UO-31): 1.18 µM (inactive) | GI50 (UACC-62): 1.64 µM (inactive) | GI50 (SR): 0.116 µM (active) | GI50 (U-251): 1.92 µM (inactive) | GI50 (M14): 1.47 µM (inactive) | GI50 (SK-MEL-2): 0.494 µM (active) | GI50 (MOLT-4): 0.299 µM (active) | GI50 (RXF 393): 0.512 µM (active) | GI50 (HOP-92): 2.99 µM (inactive) | GI50 (HCT-116): 2.64 µM (inactive) | GI50 (NCI/ADR-RES): 2.64 µM (inactive) | GI50 (SF-295): 1.43 µM (inactive) | GI50 (NCI-H23): 2.06 µM (inactive)
